What was measured:
[1] = supported liquid membrane transport into aqueous reextraction solution; format: physicochemical
Text: These examples use the second embodiment of the process according to the invention for extracting europium, neptunium, plutonium and americium from aqueous solutions having the same compositions as those used in examples 7 to 16. These examples use the device shown in the attached drawing.
This device comprises an enclosure 1 subdivided into two compartents 3 and 5 by a supported liquid membrane 7, constituted by a microporous polypropylene membrane marketed under the name CELGARD 2500 and having the following characteristics:
membrane thickness: 0.025 mm.
The pores of this membrane are filled with an organic phase constituted by nitrophenylhexyl ether incorporating 0.001 or 0.0001M of calixarene.
Compartment 3 contains 50 ml of aqueous solution (NaNO3 :4 mole/l, HNO3 : 1mole/l with Eu, Np, Pu, Am); and compartment 5 contains 50ml of an aqueous reextraction solution constituted by an aqueous solution with 1 mole/l of methylene diphosphonic acid.
The two solutions are stirred and the initial activity of the solution of compartment 3 is determined, followed by the activity of the aqueous reextraction solution of compartment 5 by liquid α spectrometry and the operation is continued for one day. From it is deduced the percentage of neptunium, plutonium, americium and europium recovered in the aqueous reextraction solution after 6 and 24 h.
The calixarenes used, the permeability (in cm h^-1) of the membrane to Np and Pu, as well as the %, at the end of 6 and 24 h,of Eu, Am, Np and Pu recovered are given in table 3.

[2] = liquid-liquid extraction from aqueous nitric solution, distribution coefficient D; format: physicochemical
Experimental: In these examples, an evaluation takes place of the effectiveness of the calixarenes of table 1 for extracting plutonium, neptunium and americium, as well as europium (simulating all the trivalent lanthanides) of an aqueous solution containing one of these elements. The composition of the aqueous solution is as follows:
[…] Contacting takes place in a 20 ml polypropylene tube, which undergoes stirring. After 1 hour of contacting, the two phases are allowed to settle and the activity of each phase is counted by liquid scintillation or α and γ spectrometries.
The distribution coefficient D is then determined and this corresponds to the ratio of the activity of actinide in the organic phase to the activity of actinide in the aqueous phase.

[3] = 6 h, supported liquid membrane, 0.001 or 0.0001M calixarene (CMPO 10^-2 M)
[4] = 24 h, supported liquid membrane, 0.001 or 0.0001M calixarene (CMPO 10^-2 M)
[5] = CELGARD 2500 membrane, nitrophenylhexyl ether with 0.001 or 0.0001M calixarene (CMPO 10^-2 M), reextraction 1 mole/l methylene diphosphonic acid
[6] = CMPO 0.01M in nitrophenyl hexyl ether, comparative
[7] = calixarene 0.001M in nitrophenyloctylether, aqueous HNO3, NaNO3 4 mole/l, 1 hour, * = precipitation
[8] = calixarene 0.0001M in nitrophenyloctylether, aqueous HNO3, NaNO3 4 mole/l, 1 hour, * = precipitation

Row | SMILES | Percentage transported in 6 h. 237 Np [1, 3] [%] | Percentage transported in 6 h. 239 Pu [1, 3] [%] | Percentage transported in 6 h. 241 Am [1, 3] [%] | Percentage of 239Pu transported in 24 h [1, 4] [%] | Percentage transported in 24 h. 237 Np [1, 4] [%] | Percentage transported in 24 h. 241 Am [1, 4] [%] | Permeability (cm/h) 237 Np [1, 5] [cm/h] | Permeability (cm/h) 239 Pu [1, 5] [cm/h] | Permeability (cm/h) 241 Am [1, 5] [cm/h] | D(distribution coefficient) 237-Np [2, 7] | D(distribution coefficient) 239-Pu [2, 7] | D(distribution coefficient) 241-Am [2, 7] | further results
1 | CCCCCCCCP(=O)(CC(=O)N(CC(C)C)CC(C)C)c1ccccc1 (stereo not shown) [CMPO, reference compound] | 50 | 99 | 9.8 | 100 | 68 | 45 | 0.74 | 3.44 | 0.17 |  |  |  | D(distribution coefficient) 237-Np [2, 6]: 0.85; D(distribution coefficient) 239-Pu [2, 6]: 22; D(distribution coefficient) 241-Am [2, 6]: 1.2
2 | CCCCCCCCCCCCOc1c2cc(NC(=O)CP(=O)(c3ccccc3)c3ccccc3)cc1Cc1cc(NC(=O)CP(=O)(c3ccccc3)c3ccccc3)cc(c1OCCCCCCCCCCCC)Cc1cc(NC(=O)CP(=O)(c3ccccc3)c3ccccc3)cc(c1OCCCCCCCCCCCC)Cc1cc(NC(=O)CP(=O)(c3ccccc3)c3ccccc3)cc(c1OCCCCCCCCCCCC)C2 [Compound 1, 25, 26, 27, 28 tetradodecyloxy-tetra-5, 11, 17, 23-(diphenylphosphinoxidoacetamido) calix[4]arene] | 56 | 84 | 97 | 85 | 66 | 100 | 1.35 | 3.4 | 4.9 | 4 | > 100 | > 100 | Percentage transported in 6 h. 152 Eu [1, 3]: 95%; Percentage transported in 24 h. 152 Eu [1, 4]: 100%; Permeability (cm/h) 152 Eu [1, 5]: 2.75 cm/h
3 | CCCCCCCCCCOc1c2cc(NC(=O)CP(=O)(c3ccccc3)c3ccccc3)cc1Cc1cc(NC(=O)CP(=O)(c3ccccc3)c3ccccc3)cc(c1OCCCCCCCCCC)Cc1cc(NC(=O)CP(=O)(c3ccccc3)c3ccccc3)cc(c1OCCCCCCCCCC)Cc1cc(NC(=O)CP(=O)(c3ccccc3)c3ccccc3)cc(c1OCCCCCCCCCC)C2 [Compound 2, tetra-O-decyl tetrakis (diphenyl phosphinoxidoacetamido)calix[4]arene] | 73 | 82 | 95.5 | 83 | 80 | 100 | 3 | 3.6 | 5 | 2 | 90 | 100 | D(distribution coefficient) 152-Eu ([2]; calixarene 0.001M in nitrophenyloctylether, aqueous HNO3, NaNO3 4 mole/l, pH ≈0, 1 hour contacting): > 100
4 | CCCCCCCCCCCCCCCCCCOc1c2cc(NC(=O)CP(=O)(c3ccccc3)c3ccccc3)cc1Cc1cc(NC(=O)CP(=O)(c3ccccc3)c3ccccc3)cc(c1OCCCCCCCCCCCCCCCCCC)Cc1cc(NC(=O)CP(=O)(c3ccccc3)c3ccccc3)cc(c1OCCCCCCCCCCCCCCCCCC)Cc1cc(NC(=O)CP(=O)(c3ccccc3)c3ccccc3)cc(c1OCCCCCCCCCCCCCCCCCC)C2 [Compound 5] |  |  |  |  |  |  |  |  |  |  |  |  | D(distribution coefficient) 237-Np [2, 8]: 1.5; D(distribution coefficient) 239-Pu [2, 8]: 24; D(distribution coefficient) 241-Am [2, 8]: 21
